Where a name gives a salt, the structure may show the parent alone.

Broadly, the IC50 is the concentration needed to halve the response being measured.

The subject of the first experiment is Plasmodium falciparum. The experiment can be described thus: In vitro anti-malarial activity against Plasmodium falciparum, IC50 assay / [3H]-Hypoxanthine incorporation assay. The experiment is classed as cell-based. The conditions noted are these: Erythrocyte; Plasmodium falciparum strains in parasitized red blood cells, [3H]-hypoxanthine incorporation, 48 hours at 37°C. How it is done: The compounds of this invention may be tested in one of several biological assays to determine the concentration of compound which is required to have a given pharmacological effect. In vitro anti-malarial activity against Plasmodium falciparum. IC50 assay / [^3H]-Hypoxanthine assay
The culture medium comprised RPMI 1640 with 25mM HEPES, sodium bicarbonate and glutamine (GIBCO™ cat. ref.: 52400), supplemented with 10% of pooled human sera AB (Irvine Scientific, cat. ref.: 5009) and HT supplement (0.15 mM hypoxanthine and 24 µM thymidine), (GIBCO™ cat. ref.: 41065). Human sera were decomplemented 30 min. at 56°C, aliquoted and stored frozen at -20°C until use in this culture medium.
This culture medium ("complete medium") was usually prepared fresh just before use and pre-warmed to 37°C.
Red blood cells O+ stock suspensions were prepared from whole blood bags coming from incomplete blood donation, provided by the Spanish Red Cross (<25 days after sampling). This "whole blood" was aliquoted and stored at 4°C.
To prepare red blood cells for the assay, the whole blood was centrifuged and washed 3 times with RPMI without serum. The upper phase, containing white blood cells was removed. The washed red blood cells were kept as a 50 % suspension in complete medium. The prepared cells were stored at 4°C and were employed in the assay at any time up to 4 days after preparation.
Test compounds were dissolved at 2 mg/ml in 100% DMSO on the day of the assay. If necessary, complete dissolution was achieved by gentle heating (the mixture was heated at a temperature <37°C) and sonication (sonication bath).
For IC50 determinations, 10 serial 2-fold dilutions were prepared in complete medium in the presence of a constant amount of DMSO. Any obvious signs of insolubility of the stock solutions in 100% DMSO or precipitation when these solutions were diluted in assay media, were recorded.
Plasmodium falciparum strains were maintained in complete medium at an hematocrit of 5% in continuous culture using a method adapted from that published by Trager and Jensen(1) and Traeger(2).
The parasitemia was calculated by counting the percentage of parasitized erythrocytes by optical microscopy. Thin films of blood were made every day from each culture flask, fixed with methanol and stained for 10 min. in Giemsa (Merck, cat. ref.: 1.09204) at 10 % in buffered water pH 7.2. The glass slides were observed and counted with an optical microscope (Nikon, Eclipse E200) equipped with a 100 X immersion oil objective.
The culture was maintained at an hematocrit of 5%, with a daily change of medium and was diluted when parasitemia had reached about 5%.
[^3H] Hypoxanthine incorporation assay was conducted using a method adapted from Desjardins et al. (3). The assays were performed in 96 wells flat bottom microplates. • 1. Serial dilutions of the test compounds (50µl of a 5X solution / well) were deposited in duplicate. Compounds of the invention were tested in this assay. Chloroquine and Atovaquone were used as control compounds for each assay. • 2. […] [^3H]-Hypoxanthine (Amersham Biosciences, cat. ref.: TRK74) was added extemporaneously to the inoculum suspension at a concentration of 1 µCi/ml (equating to […]). 200 µl of the resulting suspension was distributed into each well (other than the control well H12 described below) leading to a final volume of 250 µl per well, at 2% of hematocrit and 0.5 % of parasitemia / well. • 4. […]
On to `Cc1[nH]c(C)c(-c2cccc(C#CCN3CCC(c4ccc(OC(F)(F)F)cc4)CC3)c2)c(=O)c1Cl.O=C(O)C(F)(F)F` [Example 30, 3-Chloro-2,6-dimethyl-5-{3-[3-(4-{4-[(trifluoromethyl)oxy]phenyl}-1-piperidinyl)-1-propyn-1-yl]phenyl}-4(1H)-pyridinone trifluoroacetate], for which the IC50 was < 0.125 µg/mL.

For the molecule `Cc1[nH]c(C)c(-c2ccc3sc(CN(C)Cc4ccc(OC(F)(F)F)cc4)cc3c2)c(=O)c1Cl.Cl` [Example 31, 3-Chloro-2,6-dimethyl-5-(2-{[methyl({4-[(trifluoromethyl)oxy]phenyl}methyl)amino]methyl}-1-benzothien-5-yl)-4(1H)-pyridinone hydrochloride], the IC50 is < 0.125 µg/mL. Same read-out and setting: the result for `Cc1[nH]c(C)c(-c2ccc(C3=CCN(Cc4ccc(OC(F)(F)F)cc4)CC3)cc2)c(=O)c1Cl.Cl` [Example 32, 3-Chloro-2,6-dimethyl-5-{4-[1-({4-[(trifluoromethyl)oxy]phenyl}methyl)-1,2,3,6-tetrahydro-4-pyridinyl]phenyl}-4(1H)-pyridinone hydrochloride] reads < 0.125 µg/mL; that for `Cc1[nH]c(C)c(-c2ccc(-c3ccc(CN4CCC(c5ccc(OC(F)(F)F)cc5)CC4)cc3)cc2)c(=O)c1Cl.Cl` [Example 33, 3-Chloro-2,6-dimethyl-5-{4'-[(4-{4-[(trifluoromethyl)oxy]phenyl}-1-piperidinyl)methyl]-4-biphenylyl}-4(1H)-pyridinone hydrochloride], < 0.125 µg/mL. Regarding `Cc1[nH]c(C)c(-c2ccc(-c3cccc(CN(C)Cc4ccc(OC(F)(F)F)cc4)c3)cc2)c(=O)c1Cl.Cl` [Example 34, 3-Chloro-2,6-dimethyl-5-(3'-{[methyl({4-[(trifluoromethyl)oxy]phenyl}methyl)amino]methyl}-4-biphenylyl)-4(1H)-pyridinone hydrochloride], the IC50 is < 0.125 µg/mL. `Cc1[nH]c(C)c(-c2ccc(-c3ccc(CN(C)Cc4ccc(OC(F)(F)F)cc4)cc3)cc2)c(=O)c1Cl.Cl` [Example 35, 3-Chloro-2,6-dimethyl-5-(4'-{[methyl({4-[(trifluoromethyl)oxy]phenyl}methyl)amino]methyl}-4-biphenylyl)-4(1H)-pyridinone hydrochloride]: the IC50 was < 0.125 µg/mL. `Cc1[nH]c(C)c(-c2ccc(C#CCN(C)Cc3ccc(F)cc3F)cc2)c(=O)c1Cl.Cl` [Example 40, 3-Chloro-5-(4-{3-[[(2,4-difluorophenyl)methyl](methyl)amino]-1-propyn-1-yl}phenyl)-2,6-dimethyl-4(1H)-pyridinone hydrochloride]: the IC50 is < 0.125 µg/mL. Turning to `Cc1[nH]c(C)c(-c2ccc(C#CCN(C)Cc3ccco3)cc2)c(=O)c1Cl.Cl` [Example 41, 3-Ch loro-5-(4-{3-[(2-furanylmethyl)(methyl)amino]-1-propyn-1-yl}phenyl)-2,6-dimethyl-4(1H)-pyridinone hydrochloride], the IC50 is < 0.125 µg/mL.

In the case of `Cc1ccc(CN(C)CC#Cc2ccc(-c3c(C)[nH]c(C)c(Cl)c3=O)cc2)s1.Cl` [Example 42, 3-Chloro-2,6-dimethyl-5-[4-(3-{methyl[(5-methyl-2-thienyl)methyl]amino}-1-propyn-1-yl)phenyl]-4(1H)-pyridinone hydrochloride], the IC50 was < 0.125 µg/mL. Same read-out and setting: the result for `Cc1[nH]c(C)c(-c2ccc(C#CCN(C)Cc3nccs3)cc2)c(=O)c1Cl.Cl` [Example 43, 3-Chloro-2,6-dimethyl-5-(4-{3-[methyl(1,3-thiazol-2-ylmethyl)amino]-1-propyn-1-yl}phenyl)-4(1H)-pyridinone hydrochloride] reads < 0.125 µg/mL; that for `Cc1[nH]c(C)c(-c2ccc(C#CCN(C)Cc3cccn3C)cc2)c(=O)c1Cl.Cl` [Example 44, 3-Chloro-2,6-dimethyl-5-[4-(3-{methyl[(1-methyl-1H-pyrrol-2-yl)methyl]amino}-1-propyn-1-yl)phenyl]-4(1H)-pyridinone hydrochloride], < 0.125 µg/mL. Same read-out and setting: the result for `Cc1[nH]c(C)c(-c2ccc(C#CCN(C)Cc3ccsc3)cc2)c(=O)c1Cl.Cl` [Example 45, 3-Chloro-2,6-dimethyl-5-(4-{3-[methyl(3-thienylmethyl)amino]-1-propyn-1-yl}phenyl)-4(1H)-pyridinone hydrochloride] reads < 0.125 µg/mL. Same read-out and setting: the result for `Cc1[nH]c(C)c(-c2ccc(C#CCN(C)Cc3ccc(Cl)cc3Cl)cc2)c(=O)c1Cl.Cl` [Example 46, 3-Chloro-5-(4-{3-[[(2,4-dichlorophenyl)methyl](methyl)amino]-1-propyn-1-yl}phenyl)-2 ,6-dimethyl-4(1H)-pyridinone hydrochloride] reads < 0.125 µg/mL. Take `Cc1[nH]c(C)c(-c2ccc(C#CCN(C)Cc3ccc(S(C)(=O)=O)cc3)cc2)c(=O)c1Cl.Cl` [Example 47, 3-Chloro-2,6-dimethyl-5-{4-[3-(methyl{[4-(methylsulfonyl)phenyl]methyl}amino)-1-propyn-1-yl]phenyl}-4(1H)-pyridinone hydrochloride]: the IC50 was < 0.125 µg/mL. The same measure, in the same setting: the result for `Cc1[nH]c(C)c(-c2ccc(C#CCN(C)CCC(C)(C)C)cc2)c(=O)c1Cl.Cl` [Example 48, 3-Chloro-5-(4-{3-[(3,3-dimethylbutyl)(methyl)amino]-1-propyn-1-yl}phenyl)-2 ,6-dimethyl-4(1H)-pyridinone hydrochloride] reads < 0.125 µg/mL; that for `Cc1[nH]c(C)c(-c2ccc(C#CCN(C)CCC(F)(F)F)cc2)c(=O)c1Cl.Cl` [Example 49, 3-Chloro-2,6-dimethyl-5-(4-{3-[methyl(3,3,3-trifluoropropyl)amino]-1-propyn-1-yl}phenyl)-4(1H)-pyridinone hydrochloride], < 0.125 µg/mL; that for `Cc1[nH]c(C)c(-c2ccc(C#CCN(C)Cc3ccc(F)cc3)cc2)c(=O)c1Cl` [Example 50, 3-Chloro-5-(4-{3-[[(4-fluorophenyl)methyl](methyl)amino]-1-propyn-1-yl}phenyl)-2,6-dimethyl-4(1H)-pyridinone], < 0.125 µg/mL. `CC(=O)Oc1c(Cl)c(C)nc(C)c1-c1ccc(-c2ccc(CN3CCC(c4ccc(OC(F)(F)F)cc4)CC3)cc2)cc1.Cl` [Example 56, 3-Chloro-2,6-dimethyl-5-{4'-[(4-{4-[(trifluoromethyl)oxy]phenyl}-1-piperidinyl)methyl]-4-biphenylyl}-4-pyridinyl acetate hydrochloride]: the IC50 is < 0.125 µg/mL. In the case of `Cc1[nH]c(C)c(-c2ccc(-c3ccc(CN4CCC(C(F)(F)F)CC4)cc3)cc2)c(=O)c1Cl.Cl` [Example 57, 3-chloro-2,6-dimethyl-5-(4'-{[4-(trifluoromethyl) -1-piperidinyl]methyl}-4-biphenylyl)-4(1H)-pyridinone hydrochloride], the IC50 was < 0.125 µg/mL.

For `Cc1[nH]c(C)c(-c2ccc(-c3ccc(CN4CCC(F)(F)C4)cc3)cc2)c(=O)c1Cl.Cl` [Example 60, 3-chloro-5-{4'-[(3,3-difluoro-1-pyrrolidinyl)methyl]-4-biphenylyl}-2,6-dimethyl-4(1H)-pyridinone hydrochloride], the IC50 is < 0.125 µg/mL. For the molecule `Cc1[nH]c(CO)c(-c2ccc(-c3ccc(CN4CCC(c5ccc(OC(F)(F)F)cc5)CC4)cc3)cc2)c(=O)c1Cl` [Example 61, 3-chloro-6-(hydroxymethyl)-2-methyl-5-{4'-[(4-{4-[(trifluoromethyl)oxy]phenyl}-1-piperidinyl)methyl]-4-biphenylyl}-4(1H)-pyridinone], the IC50 was < 0.125 µg/mL.

Staying with this experiment, now noted: Plasmodium falciparum, Erythrocyte.
In the case of `Cc1[nH]c(C)c(-c2ccc(C#CCN(Cc3ccc(OC(F)(F)F)cc3)CC3CCCC3)cc2)c(=O)c1Cl` [Example 38, 3-Chloro-5-(4-{3-[(cyclopentylmethyl)({4-[(trifluoromethyl)oxy]phenyl}methyl)aminol-1-propyn-1-yl}phenyl)-2,6-dimethy)-4(1H)-pyridinone hydrochloride], the IC50 was < 0.125 µg/mL. On to `Cc1[nH]c(C)c(-c2ccc(CCCN3CCC(c4ccc(OC(F)(F)F)cc4)CC3)cc2)c(=O)c1Cl` [Example 52, 3-Chloro-2,6-dimethyl-5-{4-[3-(4-{4-[(trifluoromethyl)oxy]phenyl}-1-piperidinyl)propyl]phenyl}-4(1H)-pvridinone hydrochloride], for which the IC50 was < 0.125 µg/mL.

The values are drawn from EP2246329A1, “4(1H)-pyridinone derivatives and their use as antimalaria agents” (Glaxo Group Limited, priority 2009, dated 2010).
